The target of assay [1] is T1, SSTR2 (Rattus norvegicus, UniProt P30680). Description: cAMP accumulation in forskolin-stimulated GH4C1/SSTR2 cells (SPA radioimmunoassay). It counts as cell-based. Also on record: expressed in transfected cells; host or cells: GH4C1 rat pituitary tumor cells. Conditions: GH4-C1; test peptide 100 µM; percent reversal of SSTR2 activation by SRIF or MK678; 0% = forskolin plus agonist, 100% = forskolin alone; read-out: cAMP Assay Intrinsic activity. On the technique in general: cAMP levels reflect the balance of adenylyl cyclase and phosphodiesterase activity.
Procedure: This is the basis of a common assay for SRIF agonists and antagonists, whereby SRIF agonists reduce artificially stimulated cAMP levels, and SRIF antagonists reverse the effect of SRIF. […] This increases the response to SRIF and provides a greater dynamic range for the measurement of SRIF antagonist activity.
Stimulation of cells. GH4C1/SSTR2 cells, grown in DMEM with 10% bovine serum, are released from a tissue culture dish by incubation for several minutes at 37° C with PBS containing 0.5 mM EDTA. Cells are washed in induction buffer (PBS containing 100 µM IBMX (an inhibitor of cAMP breakdown) and 2 mM CaCl2) at room temperature, and resuspended at 2 x 10^6/mL in induction buffer. Into each well of a 96-well tray are added 50 µL of a 2 X concentration of stimulants in induction buffer. […] To initiate stimulation of the cells, 50 µL (100,000) cells are added to each well, mixed by shaking 10 seconds on a plate shaker and placed at 37° C for 15 minutes. Stimulation is arrested and cells are lysed by adding 15 µL 0.33 N HCI to each well and incubating the plate for 30 minutes at 37° C. Samples are neutralized by addition of 15 µL 0.25 N NaOH/50 mM Hepes pH 7.4. Baseline cAMP levels are determined in samples with no added forskolin or SRIF, and each treatment is performed in triplicate.
cAMP assay. To measure accumulated cAMP in the samples, a radioimmunoassay is employed. The scintillation proximity assay (SPA, Amersham, Arlington Heights, IL) allows the rapid measurement of ^125I cAMP bound to a specific antibody without separating bound radioligand from free radioligand. Each of the following reagents (15 µL) are added per well in a 96-well tray: supernatants from the cell stimulation; ^125I cAMP; SPA beads conjugated to monkey anti-rabbit IgG antibodies; and rabbit anti-cAMP antibodies. For the standard curve, known amounts of cAMP (0.2 - 12.8 pmol) are added in place of cell supernatants. The 96-well tray is sealed, shaken at room temperature overnight and measured for bound radioligand in a MicroBeta liquid scintillation counter (Wallac, Gaithersburg. MD).
The intrinsic activity of an SRIF antagonist is the percent reversal of the SSTR2 activation by SRIF or MK678, wherein 0% is defined by cAMP levels in samples treated with forskolin plus SRIF or MK678 and 100% is the cAMP level measured after treatment with forskolin alone. Therefore, increased intrinsic activity of a test compound indicates increased antagonist activity of said test compound.
An inverse agonist is a compound that is not only a pure antagonist (i.e. lacking agonist activity), but also blocks the constitutive activity of an unoccupied receptor. One indication of inverse agonist activity is the ability of a SRIF antagonist to increase cAMP levels in the absence of added SRIF.

The target in assay [2] is T1, SSTR2. The assay is described as follows: Competitive binding of 125I labeled S-14 to membranes of cells expressing transfected SSTR2 (SPA). Also on record: expressed in transfected cells. The procedure:
Membrane preparation. Tissue culture cell lines expressing transfected cDNA clones of SSTR2 and SSTR5 are used as a source of plasma membranes which specifically bind ^125I labeled S-14 (Amersham, Arlington Heights, IL). Cells are removed from culture dishes by incubation at 4°C for 5 minutes in PBS containing 1 mM EDTA, spun down (2,000 rpm, 5') and resuspended in 15 mL homogenization buffer (1 mM sodium bicarbonate pH 7.2, 1 mM EDTA, 1 mM EGTA and the following protease inhibitors: leupeptin and aprotenin at 5 µg/mL and benzamidine and bacitracin at 100 µg/mL). Cells are given 20 strokes with a Dounce homogenizer on ice and spun at 2000 rpm for 10 minutes. Membranes are isolated from the supernatant by centrifugation at 17,000 rpm for 30 minutes. The membrane pellet is washed once in 15 mL homogenization buffer and once in storage buffer (25 mM Tris pH 7.4 containing protease inhibitors). […] The membrane pellet is resuspended in storage buffer, measured for protein concentration (BioRad, CA) and stored at -80°C.
Binding assay. […] Bound radioligand is determined by counting in a Microbeta Liquid Scintillation counter (Wallac, Gaithersburg, MD). Binding data is plotted and IC50 and Ki values are calculated for test compounds using Prism software (Graphpad Software Inc., San Diego, CA) and are shown in Table V. Binding is expressed as Ki, µM.

The structures appear in SMILES notation. Bridge positions count the residues as written; N and C are the ends. Square brackets hold non-standard residues; d marks the D form. Peptide text beside a SMILES is read from it.

One may read the Ki as the equilibrium dissociation constant of an inhibitor or competing ligand from its target.

T1 sequence (P30680 whole entry): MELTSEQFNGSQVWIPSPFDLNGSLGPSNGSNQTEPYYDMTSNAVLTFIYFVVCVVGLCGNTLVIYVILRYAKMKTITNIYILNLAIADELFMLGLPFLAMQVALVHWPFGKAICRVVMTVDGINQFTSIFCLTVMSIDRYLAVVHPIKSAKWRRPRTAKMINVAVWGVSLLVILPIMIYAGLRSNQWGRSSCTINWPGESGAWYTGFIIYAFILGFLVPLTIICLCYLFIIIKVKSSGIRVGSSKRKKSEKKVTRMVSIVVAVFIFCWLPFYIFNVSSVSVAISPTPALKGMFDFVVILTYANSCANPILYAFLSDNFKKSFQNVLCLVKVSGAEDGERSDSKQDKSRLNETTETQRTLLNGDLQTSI

For the compound `CC[C@@H](C)[C@H]1NC(=O)[C@@H](Cc2ccccc2)NC(=O)[C@@H](Cc2c[nH]cn2)NC(=O)[C@@H](N)CSSC[C@@H](C(=O)O)NC(=O)[C@@H](Cc2ccccc2)NC(=O)[C@@H](Cc2c[nH]c3ccccc23)NC(=O)[C@@H](CCCNC(=N)N)NC1=O` [Peptide 34, ss C-h-f-i-r-w-f-C] (H-C[dH][dF][dI][dR][dW][dF]C-OH; disulfide 1-8), the Emax on SSTR2 [1] worked out at 25.9%. The compound further had an inhibition constant Ki at SSTR2 [2] of 1950 nM.
